These results are taken from patent US5561234A, “1-(7-chloroquinolin-4-yl)pyrazole-3-carboxamide N-oxide derivatives, method of preparing them, and their pharmaceutical compositions” (Sanofi, priority 1994, dated 1996).

Each structure is given as a SMILES string. ≈ marks a conversion by molar mass, not a printed value. Like-named read-outs stand apart in the source and are kept apart here. Bounds are passed on as bounds.

This data set can be described thus: comparative solubility study, saturated solutions at 25° C., assayed by liquid chromatography. Format: physicochemical. The protocol: The media studied are water, ethanol and a water/polyethylene glycol 400 mixture (70/30 v/v).
The solubility measurements were made at 25° C. after stirring of the saturated solutions for 3 or 5 hours.
After achieving conditions under which the products solubilized in water are not adsorbed on certain filters, the solutions are filtered and then assayed by liquid chromatography (column μmBondapak C18, eluent acetonitrile/trifluoroacetic acid, detection at 254 nm, flow rate 1 ml/minute).

Where [1] appears, read: organic solvent or mixture, ethanol, stirring of saturated solution for 3 or 5 hours, read-out: solubility in ethanol.
[2] abbreviates: water, stirring of saturated solution for 3 or 5 hours, read-out: solubility in water.
Setting [3] is: water/peg 400 70/30, organic solvent or mixture, water/polyethylene glycol 400 mixture (70/30 v/v), stirring for 3 or 5 hours, read-out: solubility in water/PEG.

`COc1cccc(OC)c1-c1cc(C(=O)NC2(C(=O)O)C3CC4CC(C3)CC2C4)nn1-c1cc[n+]([O-])c2cc(Cl)ccc12` (stereo not drawn) [EXAMPLE 2, 2-{[1-(1-oxido-7-chloroquinolin-4-yl)-5-(2,6-dimethoxyphenyl)-pyrazol-3-yl]carbonylamino}adamantane-2-carboxylic acid]: the solubility worked out at 10300 µg/mL (≈ 17100 µM) under setting [1], 1.7 µg/mL (≈ 2.82 µM) under setting [2] and 30 µg/mL (≈ 49.7 µM) under setting [3].

As to `COc1cccc(OC)c1-c1cc(C(=O)NC2(C(=O)O)C3CC4CC(C3)CC2C4)nn1-c1ccnc2cc(Cl)ccc12` (stereo not drawn) [SR48692, 2-{[1-(7-Chloroquinolin-4-yl)-5-(2,6-dimethoxyphenyl)pyrazol-3-yl]carbonylamino}adamantane-2-carboxylic acid], the solubility under setting [1] was 1300 µg/mL (≈ 2210 µM), the solubility under setting [2] came out at 0.4 µg/mL (≈ 0.681 µM) and the solubility under setting [3] was less than 1 µg/mL.
